Results published in article PMC3254090 (ACS chemical neuroscience, 2011).
pIC50, pKi: −log10 of the molar value. Like-named read-outs stand apart in the source and are kept apart here.

Legend:
[1] = system: histamine subtype 3 (H3) receptor; conditions: cited from earlier work
[2] = cited from earlier work
[3] = target: T1, histamine H3 (Homo sapiens, UniProt Q9Y5N1); assay: functional assay, H3; assay type: biochemical
[4] = target: T2, Dopamine Transporter, DAT (Homo sapiens, UniProt Q01959); assay: radioligand binding assay, DAT
[5] = cited from earlier work; remark: listed apart in the source
[6] = target: T3, norepinephrine transporter, NET (Homo sapiens, UniProt P23975); assay: functional assay, NET; assay type: biochemical
[7] = standard cytotoxicity assay
[8] = system: 68 GPCRs, ion channels and transporters; assay: external panel of radioligand binding assays
[9] = system: HCT116 cells; assay: HCT116 colon carcinoma cell viability assay; assay type: cell-based; conditions: for effect on HCT116 cell viability: after 48 hours
[10] = target: SERT (Homo sapiens, UniProt P31645); assay: SERT activity in receptor profiling; assay type: binding
[11] = target: T3, norepinephrine transporter, NET; assay: radioligand binding assay, NET
[12] = target: T1, histamine H3; assay: radioligand binding assay, H3
[13] = target: T2, Dopamine Transporter, DAT; assay: functional assay, DAT; assay type: biochemical
[14] = system: SW620 cells; assay: BrdU proliferation assay, SW620; assay type: cell-based; conditions: 10 μM, 48 hours
[15] = system: SW620 cells; assay: cell viability, SW620; assay type: cell-based
[16] = system: H520 cells; assay: cell viability, H520; assay type: cell-based
[17] = system: H520 cells; assay: BrdU proliferation assay, H520; assay type: cell-based; conditions: 10 μM, 48 hours

T2 sequence (Q01959 whole entry): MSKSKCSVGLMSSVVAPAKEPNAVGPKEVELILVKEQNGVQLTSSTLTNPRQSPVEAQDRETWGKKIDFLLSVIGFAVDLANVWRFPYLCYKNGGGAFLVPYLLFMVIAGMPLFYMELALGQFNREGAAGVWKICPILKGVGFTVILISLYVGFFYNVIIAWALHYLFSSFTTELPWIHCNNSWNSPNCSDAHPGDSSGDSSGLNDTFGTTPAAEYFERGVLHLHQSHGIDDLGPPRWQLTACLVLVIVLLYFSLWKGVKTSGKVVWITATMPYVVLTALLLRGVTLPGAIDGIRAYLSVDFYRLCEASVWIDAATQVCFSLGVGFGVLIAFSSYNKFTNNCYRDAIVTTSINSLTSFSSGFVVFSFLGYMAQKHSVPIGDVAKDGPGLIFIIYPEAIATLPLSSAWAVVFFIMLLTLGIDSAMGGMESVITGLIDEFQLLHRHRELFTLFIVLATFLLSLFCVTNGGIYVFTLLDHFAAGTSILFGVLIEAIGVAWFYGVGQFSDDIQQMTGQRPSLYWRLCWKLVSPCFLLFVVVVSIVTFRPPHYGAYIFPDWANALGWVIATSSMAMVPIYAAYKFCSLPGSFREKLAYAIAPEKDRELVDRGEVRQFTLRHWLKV
T1 sequence (Q9Y5N1 whole entry): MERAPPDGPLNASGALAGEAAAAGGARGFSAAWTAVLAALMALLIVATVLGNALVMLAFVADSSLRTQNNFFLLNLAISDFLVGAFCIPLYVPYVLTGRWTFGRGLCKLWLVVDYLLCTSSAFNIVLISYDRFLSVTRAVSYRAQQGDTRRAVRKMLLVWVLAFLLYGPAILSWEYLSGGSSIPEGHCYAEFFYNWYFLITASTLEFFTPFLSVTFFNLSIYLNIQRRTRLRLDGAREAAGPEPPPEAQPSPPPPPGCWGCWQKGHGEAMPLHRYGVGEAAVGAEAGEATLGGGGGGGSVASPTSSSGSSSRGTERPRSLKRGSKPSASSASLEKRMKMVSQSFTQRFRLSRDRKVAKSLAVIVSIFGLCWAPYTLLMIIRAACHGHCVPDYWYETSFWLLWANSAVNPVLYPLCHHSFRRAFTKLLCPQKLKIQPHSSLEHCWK
T3 sequence (P23975 whole entry): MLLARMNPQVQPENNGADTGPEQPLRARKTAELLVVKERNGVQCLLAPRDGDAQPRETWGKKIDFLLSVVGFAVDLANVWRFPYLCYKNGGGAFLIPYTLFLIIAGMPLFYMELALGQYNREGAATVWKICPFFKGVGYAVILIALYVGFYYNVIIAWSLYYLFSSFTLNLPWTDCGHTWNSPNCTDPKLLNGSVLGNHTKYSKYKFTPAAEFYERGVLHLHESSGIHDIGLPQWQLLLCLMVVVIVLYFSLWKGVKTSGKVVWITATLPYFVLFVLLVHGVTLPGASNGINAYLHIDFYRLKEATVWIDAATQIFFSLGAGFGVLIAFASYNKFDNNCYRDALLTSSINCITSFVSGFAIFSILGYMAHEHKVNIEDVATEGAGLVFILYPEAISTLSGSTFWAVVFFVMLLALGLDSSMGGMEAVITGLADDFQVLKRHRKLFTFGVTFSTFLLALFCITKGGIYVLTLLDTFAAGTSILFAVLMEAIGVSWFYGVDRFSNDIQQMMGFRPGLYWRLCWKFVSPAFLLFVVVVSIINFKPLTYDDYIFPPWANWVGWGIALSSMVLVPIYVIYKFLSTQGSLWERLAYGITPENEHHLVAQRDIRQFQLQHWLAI
SERT, sequence (P31645 whole entry, species assumed): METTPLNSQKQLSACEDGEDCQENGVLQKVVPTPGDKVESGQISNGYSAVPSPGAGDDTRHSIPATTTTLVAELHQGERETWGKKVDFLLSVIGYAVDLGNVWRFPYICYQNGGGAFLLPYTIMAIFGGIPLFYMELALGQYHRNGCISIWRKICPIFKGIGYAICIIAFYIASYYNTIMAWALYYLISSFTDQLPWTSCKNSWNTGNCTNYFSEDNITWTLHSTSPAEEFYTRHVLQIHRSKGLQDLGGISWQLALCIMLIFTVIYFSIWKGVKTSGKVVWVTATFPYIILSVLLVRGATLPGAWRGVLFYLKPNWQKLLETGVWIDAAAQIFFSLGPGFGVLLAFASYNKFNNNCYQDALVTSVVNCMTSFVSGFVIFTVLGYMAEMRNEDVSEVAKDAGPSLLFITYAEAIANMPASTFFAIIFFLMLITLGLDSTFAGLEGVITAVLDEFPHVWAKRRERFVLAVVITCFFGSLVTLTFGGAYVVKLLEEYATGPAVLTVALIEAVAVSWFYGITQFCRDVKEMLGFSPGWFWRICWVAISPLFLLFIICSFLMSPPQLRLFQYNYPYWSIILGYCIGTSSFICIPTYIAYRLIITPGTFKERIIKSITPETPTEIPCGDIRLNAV

SMILES: CN(C)CCCOc1c(Br)cc(CCN(C)C)cc1Br [compound 1, aplysamine]
- affinity for and inhibition of H3 receptor [1]: displayed both affinity for, and inhibition of

SMILES: COc1ccc(C/C(=N\O)C(=O)NCCc2c[nH]cn2)cc1Br [compound 2, verogamine]
- affinity for and inhibition of H3 receptor [1]: displayed both affinity for, and inhibition of

SMILES: C[C@H]1[C@H]2CC[C@H]3[C@@H]4CC=C5C[C@@H](N(C)C)CC[C@]5(C)[C@H]4CC[C@]23CN1C [compound 3, conessine]
- affinity for and inhibition of H3 receptor [1]: displayed both affinity for, and inhibition of

SMILES: CN(C)CCCOc1ccc(CCNC(=O)c2cc(Br)c[nH]2)cc1Br [compound 4, dispyrin]
- affinity for and inhibition of H3 receptor [1]: displayed both affinity for, and inhibition of

SMILES: N=C(N)NCCCC1NCCc2c1[nH]c1ccccc21 (stereo not drawn) [compound 5, trypargine]
- toxicity [2]: highly toxic

SMILES: N=C(N)NCCC[C@H]1NCCc2c1[nH]c1cc(Br)ccc21 [compound 7, (+)-7-Bromotrypargine]
- pIC50 [3]: 5.44
- % Inhibition (@10 μM) ([4]; 10 μM, radioligand binding): 81%
- pKi ([4]; binding): 5.52
- antimalarial activity [5]: found to possess antimalarial activity
- pIC50 [6]: 5.72
- cytotoxicity: non-toxic up to [7]: > 20 µM
- pharmacological profile in panel of 68 targets [8]: significant percent inhibition at only three targets
- effect on HCT116 cell viability [9]: no affect on HCT116 cell viability
- SERT activity [10]: devoid of SERT activity
- SERT activity ([10]; listed as (+)-7-bromotrypargine): without inhibiting SERT
- % Inhibition (@10 μM) ([11]; 10 μM, radioligand binding): 82%
- pKi ([11]; binding): 5.72
- % Inhibition (@10 μM) ([12]; 10 μM, radioligand binding): 74%
- pKi ([12]; binding): 5.74
- pIC50 [13]: 5.42

SMILES: NCCC[C@H]1NCCc2c1[nH]c1cc(Br)ccc21 [compound 21, (R)-3-(7-bromo-2,3,4,9-tetrahydro-1H-pyrido[3,4-b]indol-1-yl)propan-1-amine]
- inhibition of proliferation (BrdU) [14]: dramatic affects inhibiting proliferation
- activity on cell viability [15]: significant activity on cell viability
- pIC50 ([9]; Homo sapiens, HCT-116, 48 h): 5.52
- effect on HCT116 cell viability [9]: completely killing the cells
- cytotoxicity in multiple cell lines ([9]; multiple non-transformed and colon cancer cell lines): extremely cytotoxic
- activity on cell viability [16]: significant activity on cell viability
- inhibition of proliferation (BrdU) [17]: dramatic affects inhibiting proliferation
